Measured values from PubChem BioAssay (NCI).
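Here, GI50 denotes the concentration required for 50% inhibition of growth. The concentration for full growth arrest is given as TGI.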

How the values were obtained:
Experiment in all cases: growth of human tumour cells (NCI), 384-well format
NCI-H23 lung = system: NCI-H23 lung
NCI-H322M lung = system: NCI-H322M lung
NCI-H460 NSCLC = system: NCI-H460 NSCLC
NCI-H522 lung = system: NCI-H522 lung
NCI/ADR-RES ovarian = system: NCI/ADR-RES ovarian
OVCAR-3 ovarian = system: OVCAR-3 ovarian
OVCAR-4 ovarian = system: OVCAR-4 ovarian
OVCAR-5 ovarian = system: OVCAR-5 ovarian
OVCAR-8 ovarian = system: OVCAR-8 ovarian
PC-3 prostate = system: PC-3 prostate
RPMI-8226 leukemia = system: RPMI-8226 leukemia
RXF 393 renal = system: RXF 393 renal
SF-268 CNS = system: SF-268 CNS
SF-295 CNS = system: SF-295 CNS
SF-539 CNS = system: SF-539 CNS
SK-MEL-2 melanoma = system: SK-MEL-2 melanoma
SK-MEL-28 melanoma = system: SK-MEL-28 melanoma
SK-MEL-5 melanoma = system: SK-MEL-5 melanoma
SK-OV-3 ovarian = system: SK-OV-3 ovarian
SN12C renal = system: SN12C renal
SNB-19 CNS = system: SNB-19 CNS
SR leukemia = system: SR leukemia
SW-620 colon = system: SW-620 colon
T-47D breast = system: T-47D breast
TK-10 renal = system: TK-10 renal
U251 glioblastoma = system: U251 glioblastoma
UACC-257 melanoma = system: UACC-257 melanoma
UACC-62 melanoma = system: UACC-62 melanoma
UO-31 renal = system: UO-31 renal

In the case of Cc1c(C)n(CCCN2CCN(C)CC2)c2ccc(Oc3cccc(C(=O)N4CCN(CCc5ccc(F)cc5)CC4)c3)cc12, the TGI (NCI-H23 lung) is reported as 2830 nM, the GI50 (NCI-H322M lung) is reported as 1640 nM and the TGI (NCI-H322M lung) is reported as 3.01 µM. It also gave a GI50 (NCI-H460 NSCLC) of 1850 nM, a TGI (NCI-H460 NSCLC) of 3.32 µM and a GI50 (NCI-H522 lung) of 1680 nM. For the same compound, the TGI (NCI-H522 lung) was 3.05 µM, the GI50 (NCI/ADR-RES ovarian) was 1570 nM and the TGI (NCI/ADR-RES ovarian) was 2920 nM. The GI50 (OVCAR-3 ovarian) was 1610 nM, the TGI (OVCAR-3 ovarian) was 2970 nM and the GI50 (OVCAR-4 ovarian) was 1750 nM. For the same compound, the TGI (OVCAR-4 ovarian) was 3.13 µM, the GI50 (OVCAR-5 ovarian) was 1660 nM and the TGI (OVCAR-5 ovarian) was 3.03 µM. For the same compound, the GI50 (OVCAR-8 ovarian) was 1620 nM, the TGI (OVCAR-8 ovarian) was 3000 nM and the GI50 (PC-3 prostate) was 1650 nM. It also gave a TGI (PC-3 prostate) of 3.02 µM, a GI50 (RPMI-8226 leukemia) of 1300 nM and a TGI (RPMI-8226 leukemia) of 2560 nM. It also gave a GI50 (RXF 393 renal) of 1420 nM, a TGI (RXF 393 renal) of 2730 nM and a GI50 (SF-268 CNS) of 1780 nM. The TGI (SF-268 CNS) was 3.18 µM, the GI50 (SF-295 CNS) was 1800 nM and the TGI (SF-295 CNS) was 3.2 µM. It also gave a GI50 (SF-539 CNS) of 1610 nM, a TGI (SF-539 CNS) of 2980 nM and a GI50 (SK-MEL-2 melanoma) of 1760 nM. The TGI (SK-MEL-2 melanoma) was 3.14 µM, the GI50 (SK-MEL-28 melanoma) was 1680 nM and the TGI (SK-MEL-28 melanoma) was 3.06 µM. The GI50 (SK-MEL-5 melanoma) was 1280 nM, the TGI (SK-MEL-5 melanoma) was 2550 nM and the GI50 (SK-OV-3 ovarian) was 1520 nM. For the same compound, the TGI (SK-OV-3 ovarian) was 2860 nM, the GI50 (SN12C renal) was 1630 nM and the TGI (SN12C renal) was 2990 nM. It also gave a GI50 (SNB-19 CNS) of 1710 nM, a TGI (SNB-19 CNS) of 3.1 µM and a GI50 (SR leukemia) of 1460 nM. The TGI (SR leukemia) was 2790 nM, the GI50 (SW-620 colon) was 1770 nM and the TGI (SW-620 colon) was 3.19 µM. It also gave a GI50 (T-47D breast) of 1490 nM, a TGI (T-47D breast) of 2820 nM and a GI50 (TK-10 renal) of 1590 nM. For the same compound, the TGI (TK-10 renal) was 2940 nM, the GI50 (U251 glioblastoma) was 1700 nM and the TGI (U251 glioblastoma) was 3.1 µM. The GI50 (UACC-257 melanoma) was 889 nM, the TGI (UACC-257 melanoma) was 2100 nM and the GI50 (UACC-62 melanoma) was 1780 nM. The TGI (UACC-62 melanoma) was 3.17 µM, the GI50 (UO-31 renal) was 1610 nM and the TGI (UO-31 renal) was 2970 nM.
